What was measured:
GSPT1 = GSPT1 (Homo sapiens, UniProt P15170+Q96SW2); experiment: HiBiT degradation assay, GSPT1, Procedure A; format: cell-based; design: HiBit-GSPT1 KI HEK293(LgBit) Cells; host or cells: HEK293(LgBit) knock-in cells; conditions: six hours incubation
Procedure, shortened: (§1)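 Cells in DMEM + 10% FBS were treated with compound in a ten-point dose response from 10 μM to 0.005 μM (0.1% DMSO) for six hours at 37° C. Lysis with Nano-Glo HiBiT detection reagent followed, with luminescence read. DC50 and Ymin came from a 4-parameter fit.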

CK1α = biological target: T1, CK1α (Homo sapiens, UniProt P48729+Q96SW2); experiment: HiBiT degradation assay, CK1α, Procedure A; format: cell-based; conditions: six hours incubation
T1 construct: CSNK1A1-HiBit KI HEK293(LgBit) Cells; host or cells: HEK293(LgBit) knock-in cells
T1 sequence (P48729 whole entry): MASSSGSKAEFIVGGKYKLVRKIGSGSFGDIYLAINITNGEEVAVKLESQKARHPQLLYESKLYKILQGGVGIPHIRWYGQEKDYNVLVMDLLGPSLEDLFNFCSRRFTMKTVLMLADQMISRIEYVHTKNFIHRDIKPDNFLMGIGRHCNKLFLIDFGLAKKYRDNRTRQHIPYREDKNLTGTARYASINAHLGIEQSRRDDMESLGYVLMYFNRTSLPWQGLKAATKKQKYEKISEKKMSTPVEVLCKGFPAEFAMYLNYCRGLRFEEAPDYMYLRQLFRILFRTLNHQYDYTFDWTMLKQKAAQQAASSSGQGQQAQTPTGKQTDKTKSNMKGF
T1 sequence (Q96SW2 whole entry): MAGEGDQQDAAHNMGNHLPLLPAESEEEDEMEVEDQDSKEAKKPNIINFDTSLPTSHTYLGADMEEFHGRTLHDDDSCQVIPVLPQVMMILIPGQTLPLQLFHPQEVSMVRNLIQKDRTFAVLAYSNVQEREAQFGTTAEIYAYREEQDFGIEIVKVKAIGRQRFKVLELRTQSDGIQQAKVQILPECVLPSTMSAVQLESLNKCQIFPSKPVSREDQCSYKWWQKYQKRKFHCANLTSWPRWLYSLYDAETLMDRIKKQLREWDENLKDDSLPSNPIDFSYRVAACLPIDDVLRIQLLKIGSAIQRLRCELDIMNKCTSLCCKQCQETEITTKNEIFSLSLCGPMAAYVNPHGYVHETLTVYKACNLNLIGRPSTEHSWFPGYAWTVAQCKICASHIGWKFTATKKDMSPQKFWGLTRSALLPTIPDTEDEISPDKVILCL
T1 sequence (Q16531 whole entry partner): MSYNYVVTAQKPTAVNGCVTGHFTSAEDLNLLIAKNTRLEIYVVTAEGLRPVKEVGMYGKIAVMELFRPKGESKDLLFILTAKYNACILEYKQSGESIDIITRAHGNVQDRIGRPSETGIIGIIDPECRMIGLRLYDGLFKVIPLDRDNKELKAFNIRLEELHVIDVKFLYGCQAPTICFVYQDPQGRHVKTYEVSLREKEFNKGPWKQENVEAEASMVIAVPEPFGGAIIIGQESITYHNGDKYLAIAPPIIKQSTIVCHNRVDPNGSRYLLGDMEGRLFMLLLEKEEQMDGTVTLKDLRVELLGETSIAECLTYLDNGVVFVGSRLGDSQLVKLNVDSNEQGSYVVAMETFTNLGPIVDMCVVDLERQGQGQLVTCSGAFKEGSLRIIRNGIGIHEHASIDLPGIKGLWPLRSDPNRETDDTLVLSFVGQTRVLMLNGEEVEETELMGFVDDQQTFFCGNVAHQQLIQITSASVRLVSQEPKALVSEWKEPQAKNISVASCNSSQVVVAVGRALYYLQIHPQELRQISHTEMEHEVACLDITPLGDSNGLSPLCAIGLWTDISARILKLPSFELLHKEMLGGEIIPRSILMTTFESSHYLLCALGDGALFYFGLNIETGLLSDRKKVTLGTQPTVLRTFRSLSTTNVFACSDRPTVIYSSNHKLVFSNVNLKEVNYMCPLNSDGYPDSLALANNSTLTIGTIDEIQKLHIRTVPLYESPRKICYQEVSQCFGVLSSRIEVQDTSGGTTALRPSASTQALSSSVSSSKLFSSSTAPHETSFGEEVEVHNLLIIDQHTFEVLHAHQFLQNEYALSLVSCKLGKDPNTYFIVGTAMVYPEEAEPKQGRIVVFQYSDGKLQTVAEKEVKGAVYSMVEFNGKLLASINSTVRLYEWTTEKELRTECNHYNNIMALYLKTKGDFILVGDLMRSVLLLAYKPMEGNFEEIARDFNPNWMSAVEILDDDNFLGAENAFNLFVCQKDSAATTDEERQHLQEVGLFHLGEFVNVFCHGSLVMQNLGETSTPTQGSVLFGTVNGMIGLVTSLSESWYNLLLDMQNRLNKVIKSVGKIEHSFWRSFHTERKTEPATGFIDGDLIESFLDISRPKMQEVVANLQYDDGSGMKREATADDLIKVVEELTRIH
Procedure, shortened: as §1

Chain of GSPT1 (P15170 whole entry): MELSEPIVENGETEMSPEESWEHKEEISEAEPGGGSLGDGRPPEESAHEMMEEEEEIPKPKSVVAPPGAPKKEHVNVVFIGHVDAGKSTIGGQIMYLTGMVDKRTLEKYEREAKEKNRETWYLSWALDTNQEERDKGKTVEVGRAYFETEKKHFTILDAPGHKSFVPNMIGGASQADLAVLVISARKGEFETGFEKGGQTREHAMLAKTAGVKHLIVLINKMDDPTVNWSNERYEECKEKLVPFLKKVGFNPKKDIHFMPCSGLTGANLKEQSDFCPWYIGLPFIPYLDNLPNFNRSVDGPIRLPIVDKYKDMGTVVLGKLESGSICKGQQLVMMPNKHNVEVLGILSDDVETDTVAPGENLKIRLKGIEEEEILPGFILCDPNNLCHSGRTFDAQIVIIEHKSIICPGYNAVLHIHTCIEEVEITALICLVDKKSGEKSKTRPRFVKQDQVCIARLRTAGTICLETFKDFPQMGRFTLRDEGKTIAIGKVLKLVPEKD
Chain of GSPT1 (Q96SW2 whole entry): as the sequence (Q96SW2 whole entry) above
Chain of GSPT1 (Q16531 whole entry partner): as the sequence (Q16531 whole entry partner) above

`Cn1cnc(-c2ccc3c(c2)CN(C2CCC(=O)NC2=O)C3=O)c1-c1ccc(Cl)c(C#N)c1` (stereo not drawn) [Example 270] was tested, and the DC50 (GSPT1) was at least 25 nM, the “GSPT1 Ymin” value (GSPT1) was “F (F = >75-100% remaining)” and the “CK1α Ymin” value (CK1α) was “D (D = >10- 25% remaining)”. For the same molecule, the DC50 (CK1α) was under 25 nM.

`Cn1cnc(-c2ccc3c(c2)CN(C2CCC(=O)NC2=O)C3=O)c1-c1cc(Cl)cc(C#N)c1` (stereo not drawn) [Example 271] was tested, and the DC50 (GSPT1) was under 25 nM, the “GSPT1 Ymin” value (GSPT1) was “F (F = >75-100% remaining)” and the “CK1α Ymin” value (CK1α) was “E (E = >25-75% remaining)”. The DC50 (CK1α) was at least 25 nM.

With `Cn1cnc(-c2ccc3c(c2)CN(C2CCC(=O)NC2=O)C3=O)c1-c1cc(Cl)ccc1C#N` (stereo not drawn) [Example 272] the DC50 (GSPT1) was under 25 nM, the “GSPT1 Ymin” value (GSPT1) was “F (F = >75-100% remaining)” and the “CK1α Ymin” value (CK1α) was “E (E = >25-75% remaining)”. It also gave a DC50 (CK1α) of under 25 nM.

With `COc1ccc(-c2c(-c3ccc4c(c3)CN(C3CCC(=O)NC3=O)C4=O)ncn2C)c(Cl)c1` (stereo not drawn) [Example 273] the DC50 (GSPT1) was under 25 nM, the “GSPT1 Ymin” value (GSPT1) was “E (E = >25-75% remaining)” and the “CK1α Ymin” value (CK1α) was “C (C = 0-10% remaining)”. The DC50 (CK1α) was under 25 nM.

`COc1ccc(Cl)cc1-c1c(-c2ccc3c(c2)CN(C2CCC(=O)NC2=O)C3=O)ncn1C` (stereo not drawn) [Example 274] was tested, and the DC50 (GSPT1) was at least 25 nM, the “GSPT1 Ymin” value (GSPT1) was “F (F = >75-100% remaining)” and the “CK1α Ymin” value (CK1α) was “E (E = >25-75% remaining)”. For the same molecule, the DC50 (CK1α) was under 25 nM.

For `COc1ccc(Cl)c(-c2c(-c3ccc4c(c3)CN(C3CCC(=O)NC3=O)C4=O)ncn2C)c1` (stereo not drawn) [Example 275], the DC50 (GSPT1) was at least 25 nM, the “GSPT1 Ymin” value (GSPT1) was “F (F = >75-100% remaining)” and the “CK1α Ymin” value (CK1α) was “D (D = >10- 25% remaining)”. For the same molecule, the DC50 (CK1α) was under 25 nM.

For `COc1ccc(-c2c(-c3ccc4c(c3)CN(C3CCC(=O)NC3=O)C4=O)ncn2C)cc1Cl` (stereo not drawn) [Example 276], the DC50 (GSPT1) was under 25 nM, the “GSPT1 Ymin” value (GSPT1) was “F (F = >75-100% remaining)” and the “CK1α Ymin” value (CK1α) was “C (C = 0-10% remaining)”. The DC50 (CK1α) was under 25 nM.

With `COc1cccc(-c2c(-c3ccc4c(c3)CN(C3CCC(=O)NC3=O)C4=O)ncn2C)c1Cl` (stereo not drawn) [Example 277] the DC50 (GSPT1) was under 25 nM, the “GSPT1 Ymin” value (GSPT1) was “F (F = >75-100% remaining)” and the “CK1α Ymin” value (CK1α) was “E (E = >25-75% remaining)”. The DC50 (CK1α) was under 25 nM.

`COc1c(Cl)cccc1-c1c(-c2ccc3c(c2)CN(C2CCC(=O)NC2=O)C3=O)ncn1C` (stereo not drawn) [Example 278] was tested, and the DC50 (GSPT1) was at least 25 nM, the “GSPT1 Ymin” value (GSPT1) was “F (F = >75-100% remaining)” and the “CK1α Ymin” value (CK1α) was “E (E = >25-75% remaining)”. For the same molecule, the DC50 (CK1α) was under 25 nM.

In the case of `Cn1cnc(-c2ccc3c(c2)CN(C2CCC(=O)NC2=O)C3=O)c1-c1ccc(C2(C#N)CC2)cc1` (stereo not drawn) [Example 279], the DC50 (GSPT1) was at least 25 nM, the “GSPT1 Ymin” value (GSPT1) was “F (F = >75-100% remaining)” and the “CK1α Ymin” value (CK1α) was “D (D = >10- 25% remaining)”. The DC50 (CK1α) was under 25 nM.

In the case of `Cn1cnc(-c2ccc3c(c2)CN(C2CCC(=O)NC2=O)C3=O)c1-c1cccc(C(F)(F)F)c1` (stereo not drawn) [Example 280], the DC50 (GSPT1) was at least 25 nM, the “GSPT1 Ymin” value (GSPT1) was “F (F = >75-100% remaining)” and the “CK1α Ymin” value (CK1α) was “E (E = >25-75% remaining)”. The DC50 (CK1α) was under 25 nM.

In the case of `Cn1cnc(-c2ccc3c(c2)CN(C2CCC(=O)NC2=O)C3=O)c1-c1ccccc1C(F)(F)F` (stereo not drawn) [Example 282], the DC50 (GSPT1) was at least 25 nM, the “GSPT1 Ymin” value (GSPT1) was “F (F = >75-100% remaining)” and the “CK1α Ymin” value (CK1α) was “E (E = >25-75% remaining)”. It also gave a DC50 (CK1α) of under 25 nM.

With `Cn1cnc(-c2ccc3c(c2)CN(C2CCC(=O)NC2=O)C3=O)c1-c1ccc(Cl)c(Cl)c1` (stereo not drawn) [Example 283] the DC50 (GSPT1) was at least 25 nM, the “GSPT1 Ymin” value (GSPT1) was “F (F = >75-100% remaining)” and the “CK1α Ymin” value (CK1α) was “E (E = >25-75% remaining)”. For the same molecule, the DC50 (CK1α) was under 25 nM.

With `Cn1cnc(-c2ccc3c(c2)CN(C2CCC(=O)NC2=O)C3=O)c1-c1cccc(Cl)c1Cl` (stereo not drawn) [Example 284] the DC50 (GSPT1) was at least 25 nM, the “GSPT1 Ymin” value (GSPT1) was “F (F = >75-100% remaining)” and the “CK1α Ymin” value (CK1α) was “E (E = >25-75% remaining)”. For the same molecule, the DC50 (CK1α) was under 25 nM.

`Cn1cnc(-c2ccc3c(c2)CN(C2CCC(=O)NC2=O)C3=O)c1-c1cc(Cl)ccc1Cl` (stereo not drawn) [Example 285] was tested, and the DC50 (GSPT1) was under 25 nM, the “GSPT1 Ymin” value (GSPT1) was “F (F = >75-100% remaining)” and the “CK1α Ymin” value (CK1α) was “E (E = >25-75% remaining)”. For the same molecule, the DC50 (CK1α) was under 25 nM.

With `Cn1cnc(-c2ccc3c(c2)CN(C2CCC(=O)NC2=O)C3=O)c1-c1ccc(Cl)cc1Cl` (stereo not drawn) [Example 286] the DC50 (GSPT1) was under 25 nM, the “GSPT1 Ymin” value (GSPT1) was “E (E = >25-75% remaining)” and the “CK1α Ymin” value (CK1α) was “D (D = >10- 25% remaining)”. For the same molecule, the DC50 (CK1α) was under 25 nM.

With `Cn1cnc(-c2ccc3c(c2)CN(C2CCC(=O)NC2=O)C3=O)c1-c1ccc(N2CCCC2)cc1` (stereo not drawn) [Example 288] the DC50 (GSPT1) was under 25 nM, the “GSPT1 Ymin” value (GSPT1) was “E (E = >25-75% remaining)” and the “CK1α Ymin” value (CK1α) was “C (C = 0-10% remaining)”. The DC50 (CK1α) was under 25 nM.

For `CN(C)C(=O)c1ccc(-c2c(-c3ccc4c(c3)CN(C3CCC(=O)NC3=O)C4=O)ncn2C)cc1` (stereo not drawn) [Example 289], the DC50 (GSPT1) was at least 25 nM, the “GSPT1 Ymin” value (GSPT1) was “F (F = >75-100% remaining)” and the “CK1α Ymin” value (CK1α) was “C (C = 0-10% remaining)”. The DC50 (CK1α) was at least 25 nM.

From patent US20240158370A1, “CK1 alpha AND DUAL CK1 alpha / GSPT1 DEGRADING COMPOUNDS” (Innovo Therapeutics, Inc., priority 2022, published 2024)
